Experimental data published in patent publication US20230346827A1 (priority 2020, published 2023).

System: HUVEC + (IL-1β, TNFα and IFNy)
Test: BioMAP 3C system
Format: cell-based, human
Settings: annotated relative to vehicle controls
From the text: Cell types and stimuli used in each system are as follows: 3C system [HUVEC + (IL-1β, TNFα and IFNy)], 4H system [HUVEC + (IL-4 and histamine)], LPS system [PBMC and HUVEC + LPS (TLR4 ligand)], SAg system [PBMC and HUVEC + TCR ligands], BT system [CD19+ B cells and PBMC + (α-IgM and TCR ligands)], BF4T system [bronchial epithelial cells and HDFn + (TNFα and IL-4)], BE3C system [bronchial epithelial cells + (IL-1β, TNFα and IFNy)], CASM3C system [coronary artery smooth muscle cells + (IL-1 β, TNFα and IFNy)], HDF3CGF system [HDFn + (IL-1β, TNFα, IFNy, EGF, bFGF and PDGF-BB)], KF3CT system [keratinocytes and HDFn + (IL-1β, TNFα, IFNy and TGFβ)], MyoF system [differentiated lung myofibroblasts + (TNFα and TGFβ)] and Mphg system [HUVEC and M1 macrophages + Zymosan (TLR2 ligand)].
Systems are derived from either single cell types or co-culture systems. Adherent cell types are cultured in 96 or 384-well plates until confluence, followed by the addition of PBMC (SAg and LPS systems). […] Soluble factors from supernatants are quantified using either HTRF® detection, bead-based multiplex immunoassay or capture ELISA. Overt adverse effects of test agents on cell proliferation and viability (cytotoxicity) are detected by sulforhodamine B (SRB) staining, for adherent cells, and alamarBlue® reduction for cells in suspension. […]

sodium salt of dextran sulfate [LMW-DS]
Increased biomarker activity: IL-8
